Literature values as cited in patent publication US6703045B2, “Composition and method for maintaining blood glucose level” (Council of Scientific & Industrial Research, priority 2001, dated 2004).

[1] = approximate incidence in patients

Cc1cnc(C(=O)NCCc2ccc(S(=O)(=O)NC(=O)NC3CCCCC3)cc2)cn1 [Glipizide, 1-cyclohexyl-3-[[p-[2-(5-methylpyrazinecarboxamido)ethyl]phenyl]sulfonyl] urea]
incidence of constipation and gastralgia [1]: one in one hundred | incidence of nausea and diarrhea [1]: one in seventy | incidence of dizziness, drowsiness, and headache (each) (patients): about one in fifty
